Consider 3 compounds from patent publication US6436921B1, “Carbapenem derivatives and a preparation method thereof” (Korea Institute of Science and Technology, priority 1997, dated 2002).

Holding throughout (assay): Antibacterial activity test (agar dilution MIC)
Common to all, as to type: cell-based
Background: Agar dilution tests growth on a series of plates holding different concentrations.

Assay [1] has as its system Streptococcus pyogenes 77A. On the procedure: (§1) Gram-positive Streptococcus and Staphylococcus and Gram-negative Escherichia coli, Pseudomonas, Salmonella, Klebsiella and Enterobacter were selected for the test. After the cells were diluted and cultured in agar, the compounds of the present invention were treated to obtain the minimum inhibitory concentration in the units of μg/ml.

The subject of assay [2] is Staphylococcus aureus SG511. On the procedure:
as §1

Assay [3] deals with Pseudomonas aeruginosa 1771. The settings on record: Pseudomonas aeruginosa 1771, agar. On the procedure:
as §1

The subject of assay [4] is Streptococcus pyogenes 308A. On the procedure:
as §1

The test system of assay [5] is Streptococcus faecium MD8b. On the procedure: as §1
A further assay relates to Escherichia coli DC2. On the procedure: as §1
A further assay has as its system Enterobacter cloacae P99. On the procedure: as §1
Assay [6] deals with Staphylococcus aureus 503. The settings on record: Staphylococcus aureus 503, agar. On the procedure:
as §1

The next assay deals with Escherichia coli 1507E. On the procedure:
as §1

The test system of the next assay is Salmonella typhimurium. On the procedure:
as §1

For another assay, the system named is Escherichia coli 078. The note with it: Escherichia coli 078, agar. On the procedure: as §1
Assay [7] deals with Klebsiella aerogenes 1522E. On the procedure:
as §1

The next assay relates to Escherichia coli TEM. The settings on record: for Minimum inhibitory concentration: Escherichia coli TEM, agar. On the procedure: as §1
The subject of assay [8] is Pseudomonas aeruginosa 9027. The note with it: Pseudomonas aeruginosa 9027, agar. On the procedure:
as §1

For another assay, the system named is Klebsiella oxytoca 1082E. On the procedure:
as §1

A further assay has as its system Escherichia coli DC0. On the procedure: as §1
The subject of assay [9] is Staphylococcus aureus 285. The settings on record: Staphylococcus aureus 285, agar. On the procedure: as §1
The subject of assay [10] is Enterobacter cloacae 1321E. On the procedure:
as §1

The subject of assay [11] is Pseudomonas aeruginosa 1592E. On the procedure:
as §1

Assay [12] concerns Pseudomonas aeruginosa 1771M. The settings on record: Pseudomonas aeruginosa, 1771M, read-out: Minimum inhibitory concentration. On the procedure: as §1
Setting [13] is: read-out: Minimum inhibitory concentration.

Converted amounts (≈) assume the structure as drawn.

Regarding `C[C@@H](O)[C@H]1C(=O)N2C(C(=O)O)=C(S[C@@H]3CN[C@H](C(=O)NCCC(=O)NCCO)C3)[C@H](C)[C@H]12` [Compound 3], the Minimum inhibitory concentration in assay [1] stood at 0.007 µg/mL (≈ 0.0149 µM); in assay [2], 0.195 µg/mL (≈ 0.414 µM); in [3] it was 1.563 µg/mL (≈ 3.32 µM); in assay [4] it was 0.013 µg/mL (≈ 0.0276 µM); in assay [5] it was 12.5 µg/mL (≈ 26.6 µM); in the assay on Escherichia coli DC2 it was 0.049 µg/mL (≈ 0.104 µM). The Minimum inhibitory concentration came out at 0.049 µg/mL (≈ 0.104 µM) with Enterobacter cloacae P99; 0.195 µg/mL (≈ 0.414 µM) in assay [6]; 0.025 µg/mL (≈ 0.0531 µM) in the assay on Escherichia coli 1507E; 0.049 µg/mL (≈ 0.104 µM) in the assay on Salmonella typhimurium; 0.025 µg/mL (≈ 0.0531 µM) in the assay on Escherichia coli 078; 0.049 µg/mL (≈ 0.104 µM) in assay [7]. The Minimum inhibitory concentration in the assay with Escherichia coli TEM is 0.025 µg/mL (≈ 0.0531 µM); in [8], 1.563 µg/mL (≈ 3.32 µM); with Klebsiella oxytoca 1082E, 0.098 µg/mL (≈ 0.208 µM); in the assay with Escherichia coli DC0 it was 0.049 µg/mL (≈ 0.104 µM); in assay [9], 0.391 µg/mL (≈ 0.831 µM); in assay [10] it was 0.025 µg/mL (≈ 0.0531 µM). For the same compound, the Minimum inhibitory concentration in assay [11] turned out to be 1.563 µg/mL (≈ 3.32 µM).
As to `C[C@@H](O)[C@H]1C(=O)N2C(C(=O)O)=C(S[C@@H]3CN[C@H](C(=O)NCCC(N)=O)C3)[C@H](C)[C@H]12` [Compound 1], the MIC in [1] (setting [13]) stood at 0.007 µg/mL (≈ 0.0164 µM); in [2] (setting [13]), 0.195 µg/mL (≈ 0.457 µM); in assay [3] (setting [13]), 0.781 µg/mL (≈ 1.83 µM); in assay [4] (setting [13]), 0.013 µg/mL (≈ 0.0305 µM); in assay [5] (Enterococcus faecium, read-out: Minimum inhibitory concentration) it was 12.5 µg/mL (≈ 29.3 µM); in the assay on Enterobacter cloacae P99 (setting [13]), 0.049 µg/mL (≈ 0.115 µM). The MIC in [6] (setting [13]) was 0.098 µg/mL (≈ 0.23 µM); in the assay on Escherichia coli 1507E (setting [13]) it was 0.025 µg/mL (≈ 0.0586 µM); in the assay on Salmonella typhimurium (Salmonella enterica, read-out: Minimum inhibitory concentration) it was 0.049 µg/mL (≈ 0.115 µM); in the assay with Escherichia coli 078 (setting [13]) it was 0.025 µg/mL (≈ 0.0586 µM); in [7] (setting [13]), 0.049 µg/mL (≈ 0.115 µM); in the assay with Escherichia coli TEM (Escherichia coli, read-out: Minimum inhibitory concentration) it was 0.025 µg/mL (≈ 0.0586 µM). Moreover, the MIC was 0.391 µg/mL (≈ 0.917 µM) in assay [8] (setting [13]); 0.391 µg/mL (≈ 0.917 µM) in [12]; 0.098 µg/mL (≈ 0.23 µM) with Klebsiella oxytoca 1082E (setting [13]); 0.025 µg/mL (≈ 0.0586 µM) in the assay with Escherichia coli DC0 (setting [13]); 0.195 µg/mL (≈ 0.457 µM) in assay [9] (setting [13]); 0.025 µg/mL (≈ 0.0586 µM) in assay [10] (setting [13]). Besides, the MIC in assay [11] (setting [13]) stood at 0.391 µg/mL (≈ 0.917 µM).
Turning to `C[C@@H](O)[C@H]1C(=O)N2C(C(=O)O)=C(S[C@@H]3CN[C@H](C(=O)NCCS(=O)(=O)N4CCCC4)C3)[C@H](C)[C@H]12` [Compound 15], the Minimum inhibitory concentration in assay [1] turned out to be 0.007 µg/mL (≈ 0.0135 µM); in assay [2] it was 0.195 µg/mL (≈ 0.377 µM); in assay [3] it was 0.781 µg/mL (≈ 1.51 µM); in assay [4], 0.013 µg/mL (≈ 0.0252 µM); in assay [5], 12.5 µg/mL (≈ 24.2 µM); with Escherichia coli DC2 it was 0.049 µg/mL (≈ 0.0948 µM). The Minimum inhibitory concentration in the assay on Enterobacter cloacae P99 turned out to be 0.049 µg/mL (≈ 0.0948 µM); in [6], 0.195 µg/mL (≈ 0.377 µM); in the assay with Escherichia coli 1507E it was 0.025 µg/mL (≈ 0.0484 µM); in the assay with Salmonella typhimurium, 0.049 µg/mL (≈ 0.0948 µM); in the assay with Escherichia coli 078, 0.025 µg/mL (≈ 0.0484 µM); in [7], 0.049 µg/mL (≈ 0.0948 µM). Moreover, the Minimum inhibitory concentration is 0.025 µg/mL (≈ 0.0484 µM) with Escherichia coli TEM; 0.391 µg/mL (≈ 0.757 µM) in assay [8]; 0.098 µg/mL (≈ 0.19 µM) in the assay with Klebsiella oxytoca 1082E; 0.025 µg/mL (≈ 0.0484 µM) in the assay with Escherichia coli DC0; 0.195 µg/mL (≈ 0.377 µM) in [9]; 0.025 µg/mL (≈ 0.0484 µM) in [10]. Further, the Minimum inhibitory concentration in assay [11] was 0.391 µg/mL (≈ 0.757 µM).
